The values below come from patent US20080227752A1, “Methods to Inhibit Histone Acetyltransferase Using Glycosaminoglycans” (Trustees of Boston University, priority 2004, published 2008).

For assay [1], the target named is T1, pCAF (Homo sapiens, UniProt Q92831).
T1 construct: purchased BIOMOL International (Plymouth Meeting, Pa.)
Description: Core histone acetylation filter binding HAT assay, pCAF. Format: biochemical. To be noted: core histones; for inhibitory activity on pCAF HAT: range of concentrations tested. The protocol:
In the presence of 0.5 μCi [^3H]acetyl Co A, 10 μg core histones was incubated with either 0.5 μg pCAF (filled circles, […]) or 0.83 μg p300 HAT domain (open circles, ∘) and the indicated heparin concentrations for 30 minutes at 30° C. Formation of [^3H]acetylated core histones was determined by vacuum filtration of the samples across a nitrocellulose membrane and quantitated by liquid scintillation counting. The data is expressed as the mean % Control ±SD. Background CPM in samples without added enzyme was 5781.25 while [^3H]acetylated histone CPM in samples without heparin were 16484.5 for the pCAF containing samples and 9960.5 for the p300 HAT domain samples.
10 μg core histones were incubated with 0.5 μg pCAF, 0.5 μCi [^3H]acetyl Co A and the indicated concentrations of chondroitin sulfate (filled circles, […]), dextran (open circles, ∘), D-glucosamine (filled squares, ▪), hyaluronic acid (open squares, □) or keratan sulfate (filled triangles, ▴) for 30 minutes at 30° C. 35 μl aliquots of the reaction mixtures were spotted onto nitrocellulose filter in a dot blot apparatus under vacuum to remove unincorporated [^3H]acetyl Co A. The sample wells and filters were washed with 50 mM tris pH 7.6 and the samples were processed for liquid scintillation counting. The data is expressed as the mean % Control ±SD. 100% is equal to the activity in the absence of any additives.
10 μg core histones was incubated with 0.5 μg pCAF, 0.5 μCi [^3H]acetyl Co A and the indicated concentrations of N-Desulfated Heparin (filled circles, […]) or Fully O-Desulfated Heparin (open circles, ∘) for 30 minutes at 30° C. 35 μl aliquots of the reaction mixtures were filtered through a nitrocellulose filter in a Bio Dot Apparatus under vacuum. The wells and filter were washed with 50 mM tris pH 7.6 and the membrane was processed for liquid scintillation counting. The data is expressed as the mean % Control ±SD.
FIGS. 15A and 15B show inhibition of pCAF HAT Activity by elastase generated proteoglycans. FIG. 15A, Proteoglycans (PG) were purified from pulmonary fibroblast elastase supernatants using anion exchange chromatographic methods. Heparan sulfate proteoglycan fragments (HSPGf) were generated by treating the PG fraction with 10 mU/ml chondroitinase ABC and repurifying the fragments by anion exchange chromatography. Core histones (10 μg) were incubated with 0.5 μg pCAF, 0.5 μCi [^3H]acetyl Co A and the indicated concentrations of PG (filled squares, ▪) or HSPGf (open squares, □) for 30 minutes at 30° C. 35 μl aliquots of the reaction mixtures were filtered through a nitrocellulose filter and the membrane was processed for liquid scintillation counting. The data is expressed as the mean % Control ±SD. FIG. 15B, Proteoglycans (PG) were purified from another preparation of pulmonary fibroblast elastase supernatants. Free GAG chains (B-PG) were generated by treating the PG fraction with alkaline borohydride and were recovered by anion exchange methods. Core histones (Core histones (10 μg) were incubated with 0.5 μg pCAF, 0.5 μCi [^3H]acetyl Co A and the indicated concentrations of PG (filled squares, ▪) or B-PG (open squares, □) for 30 minutes at 30° C. 35 μl aliquots of the reaction mixtures were filtered through a nitrocellulose filter and the membrane was processed for liquid scintillation counting. The data is expressed as the mean % Control ±SD.
10 μg core histones was incubated with 0.5 μg pCAF, 0.5 μCi [^3H]acetyl Co A and the indicated concentrations of 2-O-Desulfated Heparin ([…]) or 6-O-Desulfated Heparin (∘) for 30 minutes at 30° C. 35 μl aliquots of the reaction mixtures were filtered through a nitrocellulose filter in a Bio Dot Apparatus under vacuum. The wells and filter were washed with 50 mM tris pH 7.6 and the membrane was processed for liquid scintillation counting. The data is expressed as the mean % Control ±SD. […]

The target of assay [2] is T2, p300 HAT domain (Homo sapiens, UniProt Q09472).
T2 construct: 20 U/mL of HAT enzyme (p300 HAT domain; from Upstate); purchased Upstate (Lake Placid, N.Y.)
T2 sequence (Q09472 1287-1663 limits assumed): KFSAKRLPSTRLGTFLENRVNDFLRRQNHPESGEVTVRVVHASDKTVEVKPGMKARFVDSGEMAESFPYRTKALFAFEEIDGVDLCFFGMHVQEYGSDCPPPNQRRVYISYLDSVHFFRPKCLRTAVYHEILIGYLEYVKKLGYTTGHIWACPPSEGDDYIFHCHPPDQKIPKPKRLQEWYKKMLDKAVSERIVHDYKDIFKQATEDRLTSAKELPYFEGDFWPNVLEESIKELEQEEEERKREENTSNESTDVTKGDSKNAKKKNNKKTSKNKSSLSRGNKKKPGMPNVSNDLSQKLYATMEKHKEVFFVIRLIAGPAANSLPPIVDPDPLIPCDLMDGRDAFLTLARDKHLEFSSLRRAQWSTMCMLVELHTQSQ
Description: In vitro HAT activity assay, biotinylated histone H4 peptide substrate, streptavidin capture. Format: biochemical. The note with it: 10 ug/ml, p300, H4 peptide (FIG. 9). The protocol: Biotinylated histone H4 peptide (substrate) is incubated with recombinant HAT enzyme (p300 catalytic domain) and ^3H-Acetyl-CoA, resulting in the covalent transfer of ^3H-acetate to the substrate. The ^3H-acetylated substrate can be extracted using immobilized streptavidin and counted in a scintillation counter. Thus, the amount of ^3H-acetylated substrate is a direct measure of HAT enzyme activity. Additional assays for HAT activity use core histones as the substrate and the ^3H-acetylated histone reaction products were separated from ^3H-Acetyl-CoA by membrane filtration.
Various concentrations of heparin were incubated in the presence of biotinylated histone H4 peptide, recombinant p300 catalytic domain, and [^3H]-acetyl-CoA for 1 hr at 30° C. Immobilized streptavidin was used to sequester the biotinylated substrate and was counted in a scintillation counter. Data presented are means of duplicates ±1 SE and are representative of five separate experiments. The amount of [^3H] associated with the immobilized streptavidin-biotinylated substrate in the absence of HAT enzyme (negative control) was 54.2±12.0.
HAT activity was assessed in vitro as outlined in FIG. 2. In a 1.7 mL microcentrifuge tube, 100 μL of substrate (biotinylated histone H4 peptide in 50 mM Tris, pH 7.4, 1 mM EDTA; from Pierce), 100 μL of a 5 mg/mL BSA solution (in H2O), 10.5 μL of 10×HAT buffer (500 mM Tris, pH 7.4, 10 mM EDTA), 20 U/mL of HAT enzyme (p300 HAT domain; from Upstate), and 1 μCi/mL of [^3H] Acetyl-CoA (Amersham) were mixed together and the reaction was allowed to proceed at 30° C. for 1 hour. Following this incubation, 100 μL of a 1:1 slurry of immobilized streptavidin (Pierce) pre-equilibrated in 1×HAT buffer (50 mM Tris, pH 7.4, 1 mM EDTA) was added and the sample was incubated for 30 min at RT on a rotating platform. After centrifugation at 10,000 g for 4 min, the supernatant containing the excess reactants was removed and the pellet containing the acetylated substrate bound to the immobilized streptavidin was washed 3 times with 500 μL RIPA buffer (50 mM Tris, pH 7.4, 150 mM NaCl, 1 mM EDTA, 1% NP-40, 0.5% SDC, 0.1% SDS). After the final wash, the pellet was resuspended in 500 μL 1×HAT buffer, diluted in EcoLite, and counted in a scintillation counter. Because of sample volume restrictions, reaction volumes were scaled down in some experiments.

Entries after “also recorded” stand apart in the source; their conditions may differ.

T1 sequence (Q92831 whole entry): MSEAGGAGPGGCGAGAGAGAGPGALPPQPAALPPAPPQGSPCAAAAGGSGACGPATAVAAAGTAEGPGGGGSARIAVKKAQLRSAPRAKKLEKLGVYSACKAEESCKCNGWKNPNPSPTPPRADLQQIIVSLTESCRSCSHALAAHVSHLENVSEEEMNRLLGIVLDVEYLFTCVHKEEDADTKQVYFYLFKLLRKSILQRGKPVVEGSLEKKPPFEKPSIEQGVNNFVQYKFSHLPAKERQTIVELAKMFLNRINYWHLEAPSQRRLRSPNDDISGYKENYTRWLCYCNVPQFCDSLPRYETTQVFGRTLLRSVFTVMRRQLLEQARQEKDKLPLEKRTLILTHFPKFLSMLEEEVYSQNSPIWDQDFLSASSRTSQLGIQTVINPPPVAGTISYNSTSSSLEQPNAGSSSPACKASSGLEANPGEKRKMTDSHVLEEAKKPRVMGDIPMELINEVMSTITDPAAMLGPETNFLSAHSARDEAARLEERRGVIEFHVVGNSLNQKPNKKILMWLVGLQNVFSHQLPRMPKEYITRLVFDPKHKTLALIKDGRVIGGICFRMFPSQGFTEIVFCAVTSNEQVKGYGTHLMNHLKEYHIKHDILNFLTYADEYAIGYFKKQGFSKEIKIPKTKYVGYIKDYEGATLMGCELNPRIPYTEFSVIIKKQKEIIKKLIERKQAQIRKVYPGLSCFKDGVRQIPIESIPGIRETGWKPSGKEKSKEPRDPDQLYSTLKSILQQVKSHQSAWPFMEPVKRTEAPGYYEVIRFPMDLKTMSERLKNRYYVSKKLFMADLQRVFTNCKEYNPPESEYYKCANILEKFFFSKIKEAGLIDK

With 2-O desulfated heparin, the “inhibitory activity on pCAF HAT” value in assay [1] is recorded as “did not result in significant loss of function”. In assay [2], the “HAT inhibitory activity of modified heparins” value is “retained HAT inhibitory activity; also recorded: showed reduced activity when compared to heparin”. On the same counts, the results for 6-O desulfated heparin are “did not result in significant loss of function” and “retained HAT inhibitory activity; also recorded: showed reduced activity when compared to heparin”. On to `CC(=O)N[C@H]1C(O)O[C@H](CO)[C@@H](O)[C@@H]1O` (stereo partly drawn) [N-acetyl glucosamine, N-Acetyl-D-glucosamine, reference compound], for which the “inhibitory activity on pCAF HAT” value in assay [1] is “none of the monosaccharides showed any significant inhibitory activity”. Still for that read-out and setting: to `N[C@H]1C(O)O[C@H](CO)[C@@H](O)[C@@H]1O` (stereo partly drawn) [glucosamine, D-glucosamine, reference compound] belongs “none of the monosaccharides showed any significant inhibitory activity”; to `O=C[C@H](O)[C@@H](O)[C@H](O)[C@H](O)C(=O)O` [glucuronic acid, reference compound], “none of the monosaccharides showed any significant inhibitory activity”. Take N-desulfated heparin: the “50% inhibition (IC50)” value in assay [1] (30 minutes 30° C) was roughly 20 µg/mL. In assay [2], the “HAT inhibitory activity of modified heparins” value is reported as “nearly eliminated HAT (p300) inhibition”. For chondroitin sulfate, in assay [1], the “inhibitory activity on pCAF HAT” value was “showed inhibition”. Still for that read-out and setting: under dextran [reference compound] stands “did not show any inhibitory activity”. On to hyaluronic acid, for which, in assay [1], the “effectiveness relative to heparin and other GAGs” value was “the least effective”; the “inhibitory activity on pCAF HAT” value is “showed inhibition”. For the compound keratan sulfate, the “inhibitory activity on pCAF HAT” value in assay [1] is on record as “showed inhibition”.
